# According to the NIST ThermoML archive (doi:10.1021/je030216r):
# Numbers after ± are expanded uncertainties.
# What was measured:
# [1] = 293.15 K; 101.33 kPa; Liquid
# [2] = Boiling temperature at pressure P; details: 100 kPa; Liquid; Ebulliometric method (Recirculating still)
# [3] = refractive index (Na D-line) (dimensionless); details: 293.15 K; 101.33 kPa; Liquid; Standard Abbe refractometry
SMILES,mass density [1] [kg/m3],Boiling temperature at pressure P [2] [°C],refractive index [3]
"OCCO [1,2-ethanediol]",1113.6 ± 5.1,197.48 ± 0.2,1.4328 ± 0.0008
CCC(C)CO (centres undefined) [2-methyl-1-butanol],817.8 ± 5,128.40 ± 0.2,1.4095 ± 0.0007
CC(C)CCO [3-methylbutan-1-ol],808.1 ± 5,131.30 ± 0.2,1.4054 ± 0.0007
